Laboratory results taken from patent US20080153907A1, “Pharmaceutical Composition for the Treatment of Cancer Comprising Lhm-Ra Complex” (NANOHYBRID CO., LTD., priority 2005, published 2008).

Key:
CHX tumor cells [1] = assay: H/E staining of tumor tissues from xenografted nude mice; format: in vivo, athymic nude mice; conditions: RA 0.5 mg/ml, every two weeks for 8 weeks
Experimental: (§1) The CHX tumor cells were collected at 1×10^7 cells/well and administered subcutaneously to the hind legs of athymic nude mice. Appearance of tumor mass was observed every week. Tumor masses appeared 3 weeks after the subcutaneous administration, and, when a tumor size was increased to 5 mm, one group of the mice was untreated (control group), and the other groups of the mice were treated as follows: a LDH-dose group with LDH (1 mg/ml), a RA-dose group with RA (0.5 mg/ml), and a LDH-RA dose group with LDH-RA (50 μg/ml). The LDH-dose group, the RA-dose group, and the LDH-RA dose group were further treated with LDH, RA, and LDH-RA, respectively, every two weeks for 8 weeks. Referring to FIG. 12, in the control group, a tumor size was increased to 30 mm after 8 weeks. […] In the RA-dose group, a tumor size was reduced by about 20%. In the LDH-RA dose group, a tumor size was reduced by 80% or more. After then, the mice were anesthetized. Tumor tissues were cut, fixed in formalin, and cut into sections (5 μm thick) on a microtome. The sections were stained with hematoxylin/eosin (H/E) and examined with a microscope (50× magnification), and the results are shown in FIG. 13. Referring to FIG. 13, in the control group, tumor masses were found in almost all tissues, thereby causing growth retardation of tumor, resulting in necrosis. […]

CHX tumor cells [2] = assay: Activity of lactic acid dehydrogenase associated with apoptotic cell death; format: cell-based; conditions: 250 μg/ml of RA, 12 hours
Experimental: In order to evaluate an anticancer effect of a LDH-RA hybrid obtained according the present invention, activity of lactic acid dehydrogenase associated with apoptotic cell death was measured. For this, the CHX tumor cells were seeded into each well of a 96-well plate. The CHX tumor cells were divided into 6 groups: normal group with no treatment, LDH-dose group with 1,000 μg/ml of LDH, RA-dose group with 250 μg/ml of RA, LDH-RA low-dose group with 25 μg/ml of LDH-RA, LDH-RA mid-dose group with 50 μg/ml of LDH-RA, and LDH-RA high-dose group with 100 μg/ml of LDH-RA. All groups were cultured for 12 hours. 20 μl of pyruvate substrate (NADH 1 mg/ml) was added to each group, and the cultures were mixed at room temperature for 2 minutes and stirred at 37° C. for 30 minutes. 20 μl of a color reagent (Sigma 505-2) was added to each culture, and the resultant cultures were mixed at room temperature for 20 minutes. 100 μg of 0.4N NaOH was added to each culture, and the resultant cultures were mixed at room temperature for 15 minutes. Referring to FIG. 9, the activities of lactic acid dehydrogenase of the normal group, the LDH-dose group, and the RA-dose group were 6±1.5%, 13±2%, and 42±5%, respectively. The activities of lactic acid dehydrogenase of the LDH-RA low-dose group, the LDH-RA mid-dose group, and the LDH-RA high-dose group were 41±2%, 76±6%, and 86±5%, respectively. […]

CHX tumor cells [3] = assay: Tumor development in xenografted nude mice (tumor size); format: in vivo, athymic nude mice; conditions: RA 0.5 mg/ml, LDH-RA 50 μg/ml, every two weeks for 8 weeks; control tumor 30 mm after 8 weeks
Experimental: as §1

SMILES: CC1=C(/C=C/C(C)=C/C=C/C(C)=C/C(=O)O)C(C)(C)CCC1 [RA, retinoic acid]
- reduction in tumor tissues (H/E staining) (CHX tumor cells [1]): 15%
- activity of lactic acid dehydrogenase (CHX tumor cells [2]): 42±5%
- tumor size reduced by (CHX tumor cells [3]): about 20%
